According to ChEMBL document CHEMBL2384934, “Discovery of 3-phenyl-1H-5-pyrazolylamine derivatives containing a urea pharmacophore as potent and efficacious inhibitors of FMS-like tyrosine kinase-3 (FLT3)” (Bioorg Med Chem, 2013):
Calls of active or inactive are those of the source. No cut-off for these calls is given here.

Experiments:
[1] = biological target: Mitogen-activated protein kinase 8 (Homo sapiens) (UniProt P45983); assay: Inhibition of MAPK8 (unknown origin) at 1 uM
[2] = biological target: Aurora kinase B (Homo sapiens) (UniProt Q96GD4); assay: Inhibition of AURKB (unknown origin) at 1 uM
Mus musculus [3] = assay: Toxicity in mouse assessed as mortality at 25 mg/kg, iv for 5 days; assay type: organism-based; set-up: dose 25 mg/kg, route intravenous; settings: in vivo, 120 h
K562 = assay: cells; settings: Homo sapiens, K562, 72 h
Description: Cytotoxicity against human FLT3-negative K562 cells harboring wild type BCR/ABL after 72 hrs by MTS assay

[4] = biological target: CDK2/Cyclin A2 (Homo sapiens) (UniProt P24941+P20248); assay: Inhibition of CDK2/cyclin A (unknown origin) at 1 uM; assay type: protein-complex assay
[5] = biological target: Tyrosine-protein kinase receptor TYRO3 (Homo sapiens) (UniProt Q06418); assay: Inhibition of TYRO3 (unknown origin) at 1 uM
[6] = biological target: Serine/threonine-protein kinase Chk2 (Homo sapiens) (UniProt O96017); assay: Inhibition of CHK2 (unknown origin) at 1 uM by kinase Glo assay
[7] = biological target: Insulin-like growth factor 1 receptor (Homo sapiens) (UniProt P08069); assay: Inhibition of IGF1R (unknown origin) at 1 uM
Mus musculus [8] = assay: Toxicity in mouse assessed as loss of body weight at 25 mg/kg, iv for 5 days; assay type: organism-based; set-up: dose 25 mg/kg, route intravenous; settings: in vivo, 120 h
[9] = biological target: Dual specificity mitogen-activated protein kinase kinase 1 (Homo sapiens) (UniProt Q02750); assay: Inhibition of MAP2K1 (unknown origin) at 1 uM
[10] = biological target: Angiopoietin-1 receptor (Homo sapiens) (UniProt Q02763); assay: Inhibition of TEK (unknown origin) at 1 uM
[11] = AUC (0 to infinity) in Sprague-Dawley rat at 2 mg/kg, iv; assay type: ADME, organism-based; set-up: time infinity, dose 2 mg/kg, route intravenous; settings: plasma
[12] = biological target: Platelet-derived growth factor receptor alpha (Homo sapiens) (UniProt P16234); assay: Inhibition of PDGFRA (unknown origin) at 1 uM by kinase Glo assay
[13] = biological target: Tyrosine-protein kinase ABL1 (Homo sapiens) (UniProt P00519); assay: Inhibition of ABL1 (unknown origin) at 1 uM
[14] = biological target: Glycogen synthase kinase-3 alpha (Homo sapiens) (UniProt P49840); assay: Inhibition of GSK3A (unknown origin) at 1 uM
[15] = biological target: T1, AMP-activated protein kinase (AMPK) alpha-1/beta-1/gamma-1 (Homo sapiens) (UniProt P54619+Q9Y478+Q13131); assay: Inhibition of Ampk A1/B1/G1 (unknown origin) at 1 uM; assay type: protein-complex assay
[16] = biological target: Platelet-derived growth factor receptor beta (Homo sapiens) (UniProt P09619); assay: Inhibition of PDGFRB (unknown origin) at 1 uM by kinase Glo assay
[17] = biological target: Proto-oncogene tyrosine-protein kinase receptor Ret (Homo sapiens) (UniProt P07949); assay: Inhibition of RET (unknown origin) at 1 uM
[18] = biological target: T1, AMP-activated protein kinase (AMPK) alpha-1/beta-1/gamma-1 (Homo sapiens); assay: Inhibition of AMPK A1/B1/G1 (unknown origin) at 1 uM by kinase Glo assay; assay type: protein-complex assay
[19] = biological target: Macrophage colony-stimulating factor 1 receptor (Homo sapiens) (UniProt P07333); assay: Inhibition of CSF1R (unknown origin) at 1 uM
Mus musculus [20] = assay: Toxicity in nu/nu mouse xenografted with human MOLM13 cells at 1 to 10 mg/kg, iv qd administered on days 1 to 5 and day 8 to 12; assay type: organism-based, MOLM-13; set-up: route intravenous; settings: in vivo
MOLM-13 [21] = assay: Antitumor activity against human MOLM13 cells xenografted in nu/nu mouse at 1mg/kg, iv qd administered on days 1 to 5 and days 8 to 12 measured for 5 days; assay type: functional, organism-based
[22] = biological target: Vascular endothelial growth factor receptor 3 (Homo sapiens) (UniProt P35916); assay: Inhibition of FLT4 (unknown origin) at 1 uM by kinase Glo assay
[23] = Half life in Sprague-Dawley rat at 2 mg/kg, iv; assay type: ADME, organism-based; set-up: dose 2 mg/kg, route intravenous; settings: in vivo
[24] = biological target: Ephrin type-A receptor 2 (Homo sapiens) (UniProt P29317); assay: Inhibition of EPHA2 (unknown origin) at 1 uM
[25] = biological target: Fibroblast growth factor receptor 1 (Homo sapiens) (UniProt P11362); assay: Inhibition of FGFR1 (unknown origin) at 1 uM
[26] = biological target: High affinity nerve growth factor receptor (Homo sapiens) (UniProt P04629); assay: Inhibition of NTRK1 (unknown origin) at 1 uM
MOLM-13 [27] = assay: Antitumor activity against human MOLM13 cells xenografted in nu/nu mouse at 3 mg/kg, iv qd administered on days 1 to 5 and days 8 to 12; assay type: functional, organism-based; set-up: dose 3 mg/kg
[28] = Oral bioavailability in Sprague-Dawley rat at 10 mg/kg; assay type: ADME, organism-based; settings: in vivo
[29] = biological target: T2, Receptor-type tyrosine-protein kinase FLT3 (Homo sapiens, UniProt P36888); assay: biochemical; assay type: cell-based, Sf9
T2 sequence (P36888 whole entry): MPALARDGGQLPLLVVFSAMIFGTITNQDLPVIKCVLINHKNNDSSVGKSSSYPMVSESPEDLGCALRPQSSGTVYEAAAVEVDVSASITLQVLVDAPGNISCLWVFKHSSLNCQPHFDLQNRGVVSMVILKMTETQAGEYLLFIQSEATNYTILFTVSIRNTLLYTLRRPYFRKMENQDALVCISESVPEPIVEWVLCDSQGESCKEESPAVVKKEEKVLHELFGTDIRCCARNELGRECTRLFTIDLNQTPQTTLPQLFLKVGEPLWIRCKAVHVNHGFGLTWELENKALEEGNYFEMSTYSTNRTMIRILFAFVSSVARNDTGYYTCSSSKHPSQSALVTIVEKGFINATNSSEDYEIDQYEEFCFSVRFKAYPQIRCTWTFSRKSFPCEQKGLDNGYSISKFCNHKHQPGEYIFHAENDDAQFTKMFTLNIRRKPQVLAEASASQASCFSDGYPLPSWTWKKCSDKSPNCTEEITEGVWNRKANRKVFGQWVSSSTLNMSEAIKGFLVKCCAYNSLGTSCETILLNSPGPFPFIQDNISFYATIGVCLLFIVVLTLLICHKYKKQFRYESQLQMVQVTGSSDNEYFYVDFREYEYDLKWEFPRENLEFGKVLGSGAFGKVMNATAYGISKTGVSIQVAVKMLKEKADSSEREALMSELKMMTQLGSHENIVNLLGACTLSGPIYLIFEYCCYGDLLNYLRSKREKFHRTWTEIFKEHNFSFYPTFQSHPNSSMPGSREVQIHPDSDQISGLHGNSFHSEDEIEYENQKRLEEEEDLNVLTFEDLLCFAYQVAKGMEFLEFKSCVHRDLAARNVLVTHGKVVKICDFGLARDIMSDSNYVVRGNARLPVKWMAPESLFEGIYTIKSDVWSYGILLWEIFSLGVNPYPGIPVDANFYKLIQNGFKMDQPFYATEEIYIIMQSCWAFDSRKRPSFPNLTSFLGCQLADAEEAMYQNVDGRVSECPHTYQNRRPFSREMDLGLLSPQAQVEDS
Description: Inhibition of wild type GST tagged FLT3 kinase (567 to 993) (unknown origin) transfected in insect sf9 cells after 4 hrs by wallac counting analysis

[30] = biological target: Hepatocyte growth factor receptor (Homo sapiens) (UniProt P08581); assay: Inhibition of MET (unknown origin) at 1 uM

T1 sequence (P54619 whole entry): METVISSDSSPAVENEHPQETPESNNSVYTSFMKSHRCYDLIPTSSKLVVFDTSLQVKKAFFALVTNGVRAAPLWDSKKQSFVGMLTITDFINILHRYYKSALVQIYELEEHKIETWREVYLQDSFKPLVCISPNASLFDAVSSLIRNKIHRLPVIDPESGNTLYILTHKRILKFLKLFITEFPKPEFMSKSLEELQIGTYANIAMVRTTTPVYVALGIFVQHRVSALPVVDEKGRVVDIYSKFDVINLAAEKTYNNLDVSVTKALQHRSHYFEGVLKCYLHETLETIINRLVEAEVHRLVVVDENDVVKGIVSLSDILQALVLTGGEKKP
T1 sequence (Q13131 whole entry partner): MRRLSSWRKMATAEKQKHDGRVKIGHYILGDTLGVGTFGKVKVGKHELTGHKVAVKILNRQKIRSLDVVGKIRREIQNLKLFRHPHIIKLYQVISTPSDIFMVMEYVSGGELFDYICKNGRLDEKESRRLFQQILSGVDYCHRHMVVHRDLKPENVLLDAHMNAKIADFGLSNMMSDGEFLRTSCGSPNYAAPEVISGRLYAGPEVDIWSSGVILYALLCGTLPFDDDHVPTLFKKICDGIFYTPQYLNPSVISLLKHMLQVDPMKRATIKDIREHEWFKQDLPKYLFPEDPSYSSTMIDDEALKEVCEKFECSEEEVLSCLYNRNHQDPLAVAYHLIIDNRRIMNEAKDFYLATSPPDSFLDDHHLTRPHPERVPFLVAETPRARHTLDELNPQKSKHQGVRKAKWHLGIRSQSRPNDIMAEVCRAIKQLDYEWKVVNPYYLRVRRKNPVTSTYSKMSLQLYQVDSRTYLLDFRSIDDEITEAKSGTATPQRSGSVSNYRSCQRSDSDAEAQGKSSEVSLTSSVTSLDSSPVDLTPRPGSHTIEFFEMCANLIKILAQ
T1 sequence (Q9Y478 2-270 partner limits assumed): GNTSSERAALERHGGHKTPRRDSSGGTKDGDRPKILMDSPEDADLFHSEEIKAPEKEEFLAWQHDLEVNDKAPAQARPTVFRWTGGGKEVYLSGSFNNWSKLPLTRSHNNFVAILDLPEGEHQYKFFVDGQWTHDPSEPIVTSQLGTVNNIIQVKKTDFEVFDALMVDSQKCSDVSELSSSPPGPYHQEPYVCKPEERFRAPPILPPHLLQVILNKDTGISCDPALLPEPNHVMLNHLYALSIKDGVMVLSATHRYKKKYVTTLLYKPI
Chain of Ephrin type-A receptor 2 (Homo sapiens) (P29317 whole entry): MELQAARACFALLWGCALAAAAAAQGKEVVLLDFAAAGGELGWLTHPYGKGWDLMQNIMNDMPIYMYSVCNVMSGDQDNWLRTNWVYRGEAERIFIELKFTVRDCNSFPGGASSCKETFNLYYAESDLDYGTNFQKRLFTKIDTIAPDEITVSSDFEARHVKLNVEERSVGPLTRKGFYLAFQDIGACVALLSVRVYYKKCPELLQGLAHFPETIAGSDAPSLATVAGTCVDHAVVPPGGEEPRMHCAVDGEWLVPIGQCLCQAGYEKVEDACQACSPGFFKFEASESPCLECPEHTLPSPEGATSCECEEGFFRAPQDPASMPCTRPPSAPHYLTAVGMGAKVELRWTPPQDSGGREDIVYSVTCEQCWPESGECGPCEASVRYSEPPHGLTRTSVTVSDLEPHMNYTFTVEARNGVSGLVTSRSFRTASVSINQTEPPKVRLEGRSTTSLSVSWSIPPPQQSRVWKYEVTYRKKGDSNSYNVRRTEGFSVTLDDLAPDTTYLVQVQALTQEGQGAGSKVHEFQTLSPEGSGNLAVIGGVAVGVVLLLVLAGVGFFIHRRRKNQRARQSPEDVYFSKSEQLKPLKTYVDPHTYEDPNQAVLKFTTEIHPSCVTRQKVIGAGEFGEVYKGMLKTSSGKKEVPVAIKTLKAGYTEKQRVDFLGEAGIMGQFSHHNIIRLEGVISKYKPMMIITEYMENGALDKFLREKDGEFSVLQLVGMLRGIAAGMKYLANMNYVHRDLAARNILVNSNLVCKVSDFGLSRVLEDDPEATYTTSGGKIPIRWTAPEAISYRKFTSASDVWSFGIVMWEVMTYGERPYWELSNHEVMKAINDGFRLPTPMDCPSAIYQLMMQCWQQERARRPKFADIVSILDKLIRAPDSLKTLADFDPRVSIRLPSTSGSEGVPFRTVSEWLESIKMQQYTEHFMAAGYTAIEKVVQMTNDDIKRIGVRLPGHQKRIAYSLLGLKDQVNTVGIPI
Chain of Aurora kinase B (Homo sapiens) (Q96GD4 whole entry): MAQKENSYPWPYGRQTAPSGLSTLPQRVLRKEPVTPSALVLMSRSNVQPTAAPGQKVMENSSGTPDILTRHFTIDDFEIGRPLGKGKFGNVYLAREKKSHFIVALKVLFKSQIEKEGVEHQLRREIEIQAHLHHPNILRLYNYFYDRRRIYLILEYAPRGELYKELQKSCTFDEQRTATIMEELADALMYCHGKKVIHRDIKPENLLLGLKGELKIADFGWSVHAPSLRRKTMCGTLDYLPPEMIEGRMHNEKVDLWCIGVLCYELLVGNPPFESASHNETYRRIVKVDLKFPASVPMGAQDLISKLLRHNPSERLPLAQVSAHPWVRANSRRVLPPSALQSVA
Chain of Dual specificity mitogen-activated protein kinase kinase 1 (Homo sapiens) (Q02750 whole entry): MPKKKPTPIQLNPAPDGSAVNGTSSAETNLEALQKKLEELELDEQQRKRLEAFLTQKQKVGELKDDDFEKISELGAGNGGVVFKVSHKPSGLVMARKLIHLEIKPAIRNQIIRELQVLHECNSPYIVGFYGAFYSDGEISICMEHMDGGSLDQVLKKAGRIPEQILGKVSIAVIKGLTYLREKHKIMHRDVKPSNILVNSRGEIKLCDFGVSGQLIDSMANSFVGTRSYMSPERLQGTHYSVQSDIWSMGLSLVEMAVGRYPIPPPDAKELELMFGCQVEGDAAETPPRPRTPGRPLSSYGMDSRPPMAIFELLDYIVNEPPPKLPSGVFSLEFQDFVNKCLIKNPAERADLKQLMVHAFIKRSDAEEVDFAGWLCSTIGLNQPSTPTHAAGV
Chain of Serine/threonine-protein kinase Chk2 (Homo sapiens) (O96017 whole entry): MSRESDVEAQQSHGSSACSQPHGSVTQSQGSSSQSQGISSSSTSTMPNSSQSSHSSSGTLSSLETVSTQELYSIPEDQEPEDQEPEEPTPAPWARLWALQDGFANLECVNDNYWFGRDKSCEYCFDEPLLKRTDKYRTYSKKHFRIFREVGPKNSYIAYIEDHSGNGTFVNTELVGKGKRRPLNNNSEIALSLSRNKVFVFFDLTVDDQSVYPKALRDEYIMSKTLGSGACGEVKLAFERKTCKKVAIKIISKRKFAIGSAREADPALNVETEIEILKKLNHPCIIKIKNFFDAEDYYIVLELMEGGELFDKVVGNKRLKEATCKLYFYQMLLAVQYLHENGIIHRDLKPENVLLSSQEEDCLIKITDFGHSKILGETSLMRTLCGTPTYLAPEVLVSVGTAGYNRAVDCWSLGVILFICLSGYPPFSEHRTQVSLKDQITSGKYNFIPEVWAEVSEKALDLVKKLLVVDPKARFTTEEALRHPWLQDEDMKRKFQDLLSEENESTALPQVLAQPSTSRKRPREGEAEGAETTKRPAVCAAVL
Chain of Fibroblast growth factor receptor 1 (Homo sapiens) (P11362 22-822 limits assumed): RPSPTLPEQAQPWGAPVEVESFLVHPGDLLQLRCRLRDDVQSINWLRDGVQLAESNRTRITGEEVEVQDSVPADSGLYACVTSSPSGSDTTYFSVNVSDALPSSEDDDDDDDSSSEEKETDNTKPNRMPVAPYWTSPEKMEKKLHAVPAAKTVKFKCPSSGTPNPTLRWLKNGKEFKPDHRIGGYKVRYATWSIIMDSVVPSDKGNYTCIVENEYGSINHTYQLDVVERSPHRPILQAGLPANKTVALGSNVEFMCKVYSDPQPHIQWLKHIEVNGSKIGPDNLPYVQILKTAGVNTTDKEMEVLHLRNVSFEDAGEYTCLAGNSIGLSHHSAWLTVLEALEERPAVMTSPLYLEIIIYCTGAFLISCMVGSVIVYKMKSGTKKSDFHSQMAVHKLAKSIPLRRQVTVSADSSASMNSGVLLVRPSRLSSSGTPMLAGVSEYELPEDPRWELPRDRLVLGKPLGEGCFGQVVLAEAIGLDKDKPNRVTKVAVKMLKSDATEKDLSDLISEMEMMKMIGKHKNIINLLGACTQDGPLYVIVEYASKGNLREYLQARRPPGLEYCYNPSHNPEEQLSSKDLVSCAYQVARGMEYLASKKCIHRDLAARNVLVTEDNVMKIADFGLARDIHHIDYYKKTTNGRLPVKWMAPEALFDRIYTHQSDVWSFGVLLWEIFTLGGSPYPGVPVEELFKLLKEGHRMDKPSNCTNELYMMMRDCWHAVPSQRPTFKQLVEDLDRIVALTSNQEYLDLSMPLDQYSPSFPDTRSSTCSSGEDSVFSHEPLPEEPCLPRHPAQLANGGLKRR
Chain of Glycogen synthase kinase-3 alpha (Homo sapiens) (P49840 2-483 limits assumed): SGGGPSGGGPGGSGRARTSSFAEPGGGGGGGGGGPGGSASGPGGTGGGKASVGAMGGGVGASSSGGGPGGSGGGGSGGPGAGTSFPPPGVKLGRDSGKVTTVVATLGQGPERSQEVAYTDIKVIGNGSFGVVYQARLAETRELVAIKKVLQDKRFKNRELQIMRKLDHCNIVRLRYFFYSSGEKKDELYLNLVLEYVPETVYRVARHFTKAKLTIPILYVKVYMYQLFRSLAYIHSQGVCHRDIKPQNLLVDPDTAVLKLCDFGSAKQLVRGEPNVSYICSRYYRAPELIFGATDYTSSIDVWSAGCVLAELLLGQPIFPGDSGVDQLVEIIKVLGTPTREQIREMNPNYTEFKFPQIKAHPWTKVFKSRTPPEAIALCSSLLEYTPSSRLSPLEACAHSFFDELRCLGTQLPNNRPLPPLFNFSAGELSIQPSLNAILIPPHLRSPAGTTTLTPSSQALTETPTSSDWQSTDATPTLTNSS

CC(C)(C)c1cc(NC(=O)NCc2ccc(-c3cc(NC(=O)c4ccc(OCCN5CCOCC5)cc4)[nH]n3)cc2)no1
inhibition [1]: -3%
inhibition [2]: 79%
Activity (Mus musculus [3]): Non-toxic
GI50 (K562): 11.8 µM
inhibition [4]: 5%
inhibition [5]: 24%
inhibition [6]: 10%
inhibition [7]: -1%
Activity (Mus musculus [8]): Non-toxic
inhibition [9]: 13%
inhibition [10]: 83%
AUC(0-inf) [11]: 3140 ng·h/mL
inhibition [12]: 85%
inhibition [13]: 21%
inhibition [14]: 6%
inhibition [15]: 94%
inhibition [16]: 97%
inhibition [17]: 97%
inhibition [18]: 48%
inhibition [19]: 95%
Activity (Mus musculus [20]): Non-toxic
inhibition (MOLM-13 [21]): Active
inhibition [22]: 86%
half-life [23]: 6.2 h
inhibition [24]: 19%
inhibition [25]: 48%
inhibition [26]: 98%
inhibition (MOLM-13 [27]): Active
bioavailability [28]: 1%
IC50 [29]: 0.018 µM
inhibition [30]: 2%
